According to US9096504B2, “Controlled chemical release of hydrogen sulfide” (Washington State University, priority 2010, dated 2015):

Assays:
[1] = Methylene blue experiment for H2S release in PBS buffer in presence of cysteine or GSH; format: physicochemical; settings: for GSH Peaking time / GSH [H2S] at peaking time / Cys Peaking time / Cys [H2S] at peaking time: PBS buffer pH 7.4, donor 150 μM; for GSH Peaking time / GSH [H2S] at peaking time: 1.5 mM GSH, experimental period 3 hours; for Cys Peaking time / Cys [H2S] at peaking time: 1.5 mM cysteine; for GSH Peaking time (min) / GSH [H2S] at peaking time (μM) / Cys Peaking time (min) / Cys [H2S] at peaking time (μM): footnote a: donors 40 μM and cysteine 4.0 mM
Description: Na2S Standard Curve for H2S Release
2.0 mM Na2S stock solution was prepared as described in previous section. Five aliquots of Na2S solution at 3.75 μL, 7.50 μL, 15.0 μL, 45.0 μL, and 112.5 μl were injected into the 4-mL vials containing H2O (1.0 mL), zinc acetate (1% w/v, 100 μL), N,N-dimethyl-1,4-phenylenediamine sulfate (200 μL, 20 mM) in 7.2 M HCl and ferric chloride (200 μL, 30 mM) in 1.2 M HCl, respectively. Stir the resultant solution for 15 minutes at room temperature. The absorbance (670 nm) of aliquots was determined using a UV-Vis spectrometer.
Cysteine stock solution in H2O (400 mM, 112.5 μL) and N-(benzoylthio)benzamide 2 stock solution in THF (40 mM, 112.5 μL) were added into PBS buffer solution (30 mL, pH=7.4) containing EDTA (50 mM, 60 μL), respectively. Every 3 minute, 1.0 mL of aliquots were taken to 4-mL vials containing, zinc acetate (1% w/v, 100 μL), N,N-dimethyl-1,4-phenylenediamine sulfate (200 μL, 20 mM) in 7.2 M HCl and ferric chloride (200 μL, 30 mM) in 1.2 M HCl within 3 hours. Then the absorbance (670 nm) was determined using a UV-Vis spectrometer.
The initial concentrations of H2S-donors shown below were 150 μM and the detection of H2S released from these molecules was measured in presence of 1.5 mM of cysteine or GSH, unless otherwise indicated.

[2] = H2S release measurement in plasma (colorimetry method); format: in vitro ADME, bovine/calf; settings: plasma containing ~500 μM cysteine
Description: It is known that plasma contains significant amount of free cysteine. We therefore measured H2S generation of 2-13 in plasma (containing ˜500 μM cysteine) using a colorimetry method.
To 0.5 mL of bovine/calf plasma was added […] containing zinc acetate (1% w/v, 100 μL) and trichloroacetic acid (10% w/v, 600 μL). The mixture was allowed to centrifuge for 10 min (5000 g). The precipitate was filtered out and 1.2 mL of the clear solution was transferred into a 2-mL vial containing N,N-dimethyl-1,4-phenylenediamine sulfate (150 μL, 20 mM) in 7.2 M HCl and ferric chloride (150 μL, 30 mM) in 1.2 M HCl. […] The absorbance (670 nm) of aliquots of the resulting solution (1.5 mL) was determined using a UV-VIS spectrometer. The concentration of MB^+ was then converted to the concentration of H2S according to the reaction equation shown above and the calibration curve was generated by plotting the absorbance versus [H2S].
To 2.0 mL of bovine/calf plasma (containing cysteine […]) was added 2 mL water solution containing 5a (25 μl, of 80 mM in DMSO). […] Subsequently, N,N-dimethyl-p-phenylenediamine sulfate (20 mM, 150 μL) in 7.2 M HCl was added followed by FeCl3 (30 mM, 150 μL) in 1.2 M HCl, and absorbance (670 nm) of aliquots of the resulting solution (1.5 mL) was determined 20 minutes thereafter using a UV-Vis spectrometer.

[3] = test system: mice subjected to ischemia followed by reperfusion; assay: Mouse model of ischemia followed by reperfusion (Elrod et al.); format: in vivo; settings: compared to vehicle treated mice
Description: The effects of compound 2 have been tested using the mouse model of Elrod et al. (Proc. Natl. Acad. Sci. USA 2007, 104, 15560). Briefly, mice were subjected to ischemia followed by reperfusion. During reperfusion, compound 2 was administered to the mice.

Compound: O=C(NSC(=O)c1ccccc1)Nc1ccccc1
- GSH Peaking time [1]: 30 min
- GSH [H2S] at peaking time [1]: 23.4 µM
- Cys Peaking time [1]: 15 min
- Cys [H2S] at peaking time [1]: 33.9 µM

Compound: O=C(NSC(=O)c1ccccc1)c1ccccc1 [Compound 2, N-(benzoylthio)benzamide]
- GSH Peaking time [1]: 39 min
- GSH [H2S] at peaking time [1]: 140.4 µM
- Cys Peaking time [1]: 24 min
- Cys [H2S] at peaking time [1]: 143.6 µM
- H2S generation in plasma [2]: time-dependent H2S release
- reduction in infarct size per area-at-risk (INF/AAR) ([3]; 100 μg/kg bolus during reperfusion, maximal): 40%
- infarct size per area-at-risk (INF/AAR), dose dependence ([3]; administered during reperfusion): dose-dependent reduction

Compound: O=C(NSC(=O)c1ccc(F)cc1)c1ccccc1 [Compound 3]
- GSH Peaking time [1]: 36 min
- GSH [H2S] at peaking time [1]: 122.6 µM
- Cys Peaking time [1]: 18 min
- Cys [H2S] at peaking time [1]: 143.1 µM

Compound: O=C(NSC(=O)c1ccc(C(F)(F)F)cc1)c1ccccc1 [Compound 4]
- GSH Peaking time [1]: 27 min
- GSH [H2S] at peaking time [1]: 59.5 µM
- Cys Peaking time [1]: 26 min
- Cys [H2S] at peaking time [1]: 110.0 µM

Compound: O=C(NSC(=O)c1cccc(Cl)c1)c1ccccc1 [Compound 5]
- GSH Peaking time [1]: 36 min
- GSH [H2S] at peaking time [1]: 146.5 µM
- Cys Peaking time [1]: 24 min
- Cys [H2S] at peaking time [1]: 142.1 µM

Compound: Cc1ccccc1C(=O)SNC(=O)c1ccccc1 [Compound 6]
- GSH Peaking time [1]: 45 min
- GSH [H2S] at peaking time [1]: 61.9 µM
- Cys Peaking time [1]: 34 min
- Cys [H2S] at peaking time [1]: 85.0 µM

Compound: Cc1cccc(C(=O)SNC(=O)c2ccccc2)c1 [Compound 7]
- GSH Peaking time [1]: 39 min
- GSH [H2S] at peaking time [1]: 131.0 µM
- Cys Peaking time [1]: 28 min
- Cys [H2S] at peaking time [1]: 141.8 µM

Compound: Cc1ccc(C(=O)SNC(=O)c2ccccc2)cc1 [Compound 8]
- GSH Peaking time [1]: 30 min
- GSH [H2S] at peaking time [1]: 100.3 µM
- Cys Peaking time [1]: 27 min
- Cys [H2S] at peaking time [1]: 93.9 µM

Compound: COc1ccccc1C(=O)SNC(=O)c1ccccc1 [Compound 9]
- GSH Peaking time [1]: 48 min
- GSH [H2S] at peaking time [1]: 48.3 µM
- Cys Peaking time [1]: 36 min
- Cys [H2S] at peaking time [1]: 52.8 µM

Compound: COc1cccc(C(=O)SNC(=O)c2ccccc2)c1 [Compound 10]
- GSH Peaking time [1]: 20 min
- GSH [H2S] at peaking time [1]: 133.6 µM
- Cys Peaking time [1]: 25 min
- Cys [H2S] at peaking time [1]: 111.6 µM

Compound: COc1ccc(C(=O)SNC(=O)c2ccccc2)cc1 [Compound 11]
- GSH Peaking time [1]: 40 min
- GSH [H2S] at peaking time [1]: 100.5 µM
- Cys Peaking time [1]: 27 min
- Cys [H2S] at peaking time [1]: 92.4 µM

Compound: COc1ccc(C(=O)SNC(=O)c2ccccc2)c(OC)c1 [Compound 12]
- GSH Peaking time (min) [1]: 120 ^a min
- GSH [H2S] at peaking time (μM) [1]: 13.2 ^a μM
- Cys Peaking time (min) [1]: 50 ^a min
- Cys [H2S] at peaking time (μM) [1]: 23.0 ^a μM

Compound: CN(C)c1ccc(C(=O)SNC(=O)c2ccccc2)cc1 [Compound 13]
- GSH Peaking time (min) [1]: 30 ^a min
- GSH [H2S] at peaking time (μM) [1]: 15.0 ^a μM
- Cys Peaking time (min) [1]: 22 ^a min
- Cys [H2S] at peaking time (μM) [1]: 17.5 ^a μM

Compound: O=C(NSC(=O)C1CCCCC1)c1ccccc1 [Compound 16]
- GSH Peaking time [1]: 36 min
- GSH [H2S] at peaking time [1]: 81.9 µM
- Cys Peaking time [1]: 18 min
- Cys [H2S] at peaking time [1]: 72.4 µM

Compound: O=C(NSC(=O)C1CCCC1)c1ccccc1 [Compound 17]
- GSH Peaking time [1]: 32 min
- GSH [H2S] at peaking time [1]: 110.9 µM
- Cys Peaking time [1]: 18 min
- Cys [H2S] at peaking time [1]: 100.6 µM

Compound: CC(C)C(=O)SNC(=O)c1ccccc1 [Compound 18]
- GSH Peaking time [1]: 52 min
- GSH [H2S] at peaking time [1]: 101.1 µM
- Cys Peaking time [1]: 36 min
- Cys [H2S] at peaking time [1]: 131.6 µM

Compound: CC(=O)SNC(=O)c1ccccc1 [Compound 19]
- GSH Peaking time [1]: 18 min
- GSH [H2S] at peaking time [1]: 116.1 µM
- Cys Peaking time [1]: 12 min
- Cys [H2S] at peaking time [1]: 132.6 µM

Compound: CCC(=O)SNC(=O)c1ccccc1 [Compound 20]
- GSH Peaking time [1]: 35 min
- GSH [H2S] at peaking time [1]: 103.6 µM
- Cys Peaking time [1]: 28 min
- Cys [H2S] at peaking time [1]: 106.1 µM

Compound: CC(C)(C)C(=O)SNC(=O)c1ccccc1 [Compound 21]
- GSH Peaking time [1]: 90 min
- GSH [H2S] at peaking time [1]: 96.6 µM
- Cys Peaking time [1]: 55 min
- Cys [H2S] at peaking time [1]: 106.4 µM

Compound: CCCC(=O)SNC(=O)c1ccccc1 [Compound 22]
- GSH Peaking time [1]: 40 min
- GSH [H2S] at peaking time [1]: 122.3 µM
- Cys Peaking time [1]: 39 min
- Cys [H2S] at peaking time [1]: 111.3 µM

Compound: Cc1ccccc1C(=O)NSC(=O)c1ccccc1 [Compound 24]
- GSH Peaking time [1]: 30 min
- GSH [H2S] at peaking time [1]: 130.5 µM
- Cys Peaking time [1]: 24 min
- Cys [H2S] at peaking time [1]: 146.9 µM

Compound: O=C(NSC(=O)c1ccccc1)c1cccc(Cl)c1 [Compound 25]
- GSH Peaking time [1]: 27 min
- GSH [H2S] at peaking time [1]: 84.3 µM
- Cys Peaking time [1]: 26 min
- Cys [H2S] at peaking time [1]: 83.6 µM

Compound: O=C(NSC(=O)c1ccccc1)c1ccc(F)cc1 [Compound 26]
- GSH Peaking time [1]: 42 min
- GSH [H2S] at peaking time [1]: 104.1 µM
- Cys Peaking time [1]: 34 min
- Cys [H2S] at peaking time [1]: 110.6 µM

Compound: CC(=O)NSC(=O)c1ccccc1 [Compound 27]
- GSH Peaking time [1]: 39 min
- GSH [H2S] at peaking time [1]: 149.6 µM
- Cys Peaking time [1]: 30 min
- Cys [H2S] at peaking time [1]: 145.4 µM

Compound: CCC(=O)NSC(=O)c1ccccc1 [Compound 28]
- GSH Peaking time [1]: 50 min
- GSH [H2S] at peaking time [1]: 116.6 µM
- Cys Peaking time [1]: 34 min
- Cys [H2S] at peaking time [1]: 120.9 µM

Compound: CCCC(=O)NSC(=O)c1ccccc1 [Compound 29]
- GSH Peaking time [1]: 39 min
- GSH [H2S] at peaking time [1]: 98.9 µM
- Cys Peaking time [1]: 30 min
- Cys [H2S] at peaking time [1]: 102.8 µM

Compound: O=C(Cc1ccccc1)SNC(=O)c1ccccc1 [Compound 30]
- GSH Peaking time [1]: 44 min
- GSH [H2S] at peaking time [1]: 104.9 µM
- Cys Peaking time [1]: 30 min
- Cys [H2S] at peaking time [1]: 108.6 µM

Compound: CC(C(=O)SNC(=O)c1ccccc1)c1ccccc1 (stereo not drawn) [Compound 31]
- GSH Peaking time [1]: 52 min
- GSH [H2S] at peaking time [1]: 103.8 µM
- Cys Peaking time [1]: 36 min
- Cys [H2S] at peaking time [1]: 130.4 µM

Compound: O=C(NSC(=O)C(c1ccccc1)c1ccccc1)c1ccccc1 [Compound 32]
- Cys Peaking time [1]: 60 min
- Cys [H2S] at peaking time [1]: 45.6 µM

Compound: COC(=O)C(CSSC(=O)c1ccccc1)NC(=O)c1ccccc1 (stereo not drawn) [Compound 33]
- GSH Peaking time [1]: 45 min
- GSH [H2S] at peaking time [1]: 18.3 µM
- Cys Peaking time [1]: 35 min
- Cys [H2S] at peaking time [1]: 25.8 µM

Compound: CC(=O)NC(C(=O)NCc1ccccc1)C(C)(C)SSC(=O)c1ccccc1 (stereo not drawn) [Compound 34]
- GSH Peaking time [1]: 39 min
- GSH [H2S] at peaking time [1]: 137 µM
- Cys Peaking time [1]: 33 min
- Cys [H2S] at peaking time [1]: 149 µM
- melting point: 143 to 145 °C
